A short description of data set [1]: Inhibition of GABA-A receptor (unknown origin). Also on record: species or system Homo sapiens.
The nature of data set [2]: Effect on cleaved PARP level in human NCI-H524 cells assessed as relative expression at 10 nM measured after 7 days by Western blot analysis (reference value: 0.63). Format: functional. The conditions noted are these: time 7 day. Background: A western blot detects proteins with antibodies after separation by electrophoresis.
Data set [3] in a line: Effect on cleaved PARP level in human COLO-668 cells assessed as fold change at 100 nM measured after 7 days by Western blot analysis (reference value: 1.00). Format: functional. The conditions noted are these: time 7 day.
A short description of data set [4]: Effect on cleaved PARP level in human NCI-H510 cells assessed as fold change at 10 nM measured after 7 days by Western blot analysis (reference value: 1.00). Format: functional, NCI-H510A. The conditions noted are these: time 7 day.
A short description of data set [5]: Effect on cleaved PARP level in human NCI-H1417 cells assessed as fold change at 100 nM measured after 7 days by Western blot analysis (reference value: 1.00). In kind it is functional. The conditions noted are these: time 7 day.
Data set [6] is described as follows: Dose normalized AUC (0 to last) in mouse blood at 5 mg/kg, po by HPLC/MS/MS analysis. Format: ADME, organism-based. The conditions noted are these: in vivo.
The nature of data set [7]: Effect on cleaved PARP level in human NCI-H889 cells assessed as relative expression at 10 nM measured after 14 days by Western blot analysis (reference value: 0.94). Format: functional. The conditions noted are these: time 14 day.
Data set [8] has as its target T1, Lysine-specific histone demethylase 1A (Homo sapiens, UniProt O60341). The data set can be described thus: Binding affinity to LSD1 (unknown origin) using H3K4me2 as substrate assessed as apparent inhibition constant by HRP-coupled amplex red assay. The conditions noted are these: read-out: Ki(app).
The test system of a further data set is NCI-H446. The data set can be described thus: Effect on NCAM gene expression in human NCI-H446 cells at 1 uM measured after 4 days by qRT-PCR analysis. In kind it is functional, cell-based. The conditions noted are these: time 4.0 day. Background: Quantitative PCR measures a nucleic acid by following its amplification.
The test system of data set [9] is NCI-H526. Nature of the data set: Effect on global H3K4me1 level in human NCI-H526 cells at 10 to 1000 nM measured after 24 hrs by Western blot analysis. In kind it is functional, cell-based. The conditions noted are these: dose 10-1000 nM.
The nature of data set [10]: Toxicity in mouse xenografted with human NCI-H526 cells assessed as body weight loss at 1.5 mg/kg, po administered daily measured for 30 days. The conditions noted are these: in vivo, 720 h, time 30 day. Format: organism-based. In general terms: Xenograft models place foreign cells or tissue in a host animal.
Data set [11] is described as follows: Effect on cleaved PARP level in human NCI-H889 cells assessed as relative expression at 100 nM measured after 7 days by Western blot analysis (reference value: 0.34). In kind it is functional. The conditions noted are these: time 7 day.
Data set [12] in a line: AUC (0 to infinity) in mouse tumor at 5 mg/kg, po by HPLC/MS/MS analysis. In kind it is ADME, organism-based, Neoplasm.
The nature of data set [13]: Effect on cleaved PARP level in human NCI-H1694 cells assessed as relative expression at 10 nM measured after 14 days by Western blot analysis (reference value: 0.25). In kind it is functional. The conditions noted are these: time 14 day.
The nature of data set [14]: Effect on cleaved PARP level in human NCI-H69 cells assessed as fold change at 10 nM measured after 10 days by Western blot analysis (reference value: 1.00). Format: functional. The conditions noted are these: time 10 day.
Data set [15] can be described thus: Effect on cleaved PARP level in human NCI-H146 cells assessed as relative expression at 1000 nM measured after 10 days by Western blot analysis (reference value: 0.27). In kind it is functional. The conditions noted are these: time 10 day.
The nature of data set [16]: Tmax in mouse blood at 5 mg/kg, po by HPLC/MS/MS analysis. Format: ADME, organism-based.
For data set [17], the system named is NCI-H146. Nature of the data set: Effect on NSE gene expression in human NCI-H146 cells at 1 uM measured after 4 to 7 days by qRT-PCR analysis. The conditions noted are these: time 4-7 day. In kind it is functional, cell-based.
Data set [18] in a line: Effect on cleaved PARP level in human NCI-H889 cells assessed as relative expression at 1000 nM measured after 7 days by Western blot analysis (reference value: 0.34). The conditions noted are these: time 7 day. Format: functional.
Data set [19] concerns the target T1, Lysine-specific histone demethylase 1A. The conditions noted are these: NCI-H526, dose 1-10000 nM, time 1-7 day.
Description: Inhibition of LSD1 in human NCI-H526 cells assessed as change in IGFBP2 gene expression treated for 1 to 7 days by qRT-PCR analysis
The nature of data set [20]: Cmax in mouse tumor at 5 mg/kg, po by HPLC/MS/MS analysis. In kind it is ADME, organism-based, Neoplasm.
Data set [21] is described as follows: Effect on cleaved PARP level in human COLO-668 cells assessed as relative expression at 100 nM measured after 14 days by Western blot analysis (reference value: 3.50). The conditions noted are these: time 14 day. Format: functional.
Data set [22] can be described thus: Toxicity in dog assessed as thrombocytopenia measured for 28 days. The conditions noted are these: in vivo, 672 h, time 28 day. Further details: species or system Canis lupus familiaris.
The nature of data set [23]: Effect on cleaved PARP level in human NCI-H2171 cells assessed as relative expression at 1000 nM measured after 10 days by Western blot analysis (reference value: 0.02). Format: functional. The conditions noted are these: time 10 day.
Data set [24] in a line: Effect on cleaved PARP level in human NCI-H1694 cells assessed as fold change at 10 nM measured after 7 days by Western blot analysis (reference value: 1.00). In kind it is functional. The conditions noted are these: time 7 day.
The nature of data set [25]: Effect on cleaved PARP level in human NCI-H1417 cells assessed as relative expression at 10 nM measured after 14 days by Western blot analysis (reference value: 0.38). Format: functional. The conditions noted are these: time 14 day.
Data set [26] is described as follows: Effect on cleaved PARP level in human NCI-H889 cells assessed as relative expression at 10 nM measured after 10 days by Western blot analysis (reference value: 0.33). Format: functional. The conditions noted are these: time 10 day.
Data set [27] is described as follows: Effect on cleaved PARP level in human NCI-H69 cells assessed as relative expression at 1000 nM measured after 14 days by Western blot analysis (reference value: 0.03). In kind it is functional. The conditions noted are these: time 14 day.
Data set [28] in a line: Effect on cleaved PARP level in human NCI-H2171 cells assessed as relative expression at 1000 nM measured after 7 days by Western blot analysis (reference value: 0.02). In kind it is functional. The conditions noted are these: time 7 day.
Data set [29] can be described thus: Effect on cleaved PARP level in human NCI-H524 cells assessed as fold change at 100 nM measured after 10 days by Western blot analysis (reference value: 1.00). In kind it is functional. The conditions noted are these: time 10 day.
A further data set has as its system NCI-H1417. The data set can be described thus: In vivo inhibition of LSD1 in human NCI-H1417 cells xenografted in nude mouse assessed as change in ZEB1 gene expression measured after 24 hrs post single administration by qRT-PCR analysis. In kind it is functional, organism-based. The conditions noted are these: dose 0.02-135 mg/kg.
Data set [30] deals with NCI-H146. The data set can be described thus: Effect on NCAM gene expression in human NCI-H146 cells at 1 uM measured after 4 days by qRT-PCR analysis. The conditions noted are these: time 4.0 day. In kind it is functional, cell-based.
Data set [31] in a line: Effect on cleaved PARP level in human NCI-H1694 cells assessed as fold change at 10 nM measured after 14 days by Western blot analysis (reference value: 1.00). In kind it is functional. The conditions noted are these: time 14 day.
For data set [32], the system named is NCI-H526. Nature of the data set: Antitumor activity against human NCI-H526 cells xenografted in nude mouse assessed as mean tumor volume at 0.5 mg/kg, po administered daily measured twice weekly (reference value: 2359 +/- 247 mm3). In kind it is functional.
Data set [33] in a line: Effect on cleaved PARP level in human NCI-H146 cells assessed as relative expression at 10 nM measured after 14 days by Western blot analysis (reference value: 2.42). In kind it is functional. The conditions noted are these: time 14 day.
Data set [34] is described as follows: Half life in mouse tumor at 5 mg/kg, po by HPLC/MS/MS analysis. In kind it is ADME, organism-based, Neoplasm.
A short description of data set [35]: Effect on cleaved PARP level in human COLO-668 cells assessed as relative expression at 100 nM measured after 10 days by Western blot analysis (reference value: 1.07). In kind it is functional. The conditions noted are these: time 10 day.

Activity calls are given as the source filed them.

What is called IC50 is the concentration that inhibits the measured activity by half. The compound `c1ccc([C@@H]2C[C@H]2NC2CCNCC2)cc1` had an IC50 in [1] greater than 100000 nM.
As a reminder, the AUC(0-inf) is the area under the concentration-time curve extrapolated to infinity. A lower AUC(0-inf) goes with less exposure. By Tmax is commonly meant the time from dosing to the highest level. Broadly, the Cmax is the highest concentration seen after dosing. By half-life is commonly meant the time needed for the level to fall by half in the phase considered. Lower therefore signals fast loss. On to `O=C(O)c1ccc(CN2CCC(CN[C@@H]3C[C@H]3c3ccccc3)CC2)cc1` [GSK2879552], for which the Activity in [2] was 0.62; in data set [7] it was 1.73; in data set [10], “Non-Toxic”; in data set [11] it was 0.43; in data set [13], 0.22; in data set [15], 0.24. Also, the Activity is recorded as 0.66 in data set [18]; 0.89 in [21]; “Toxic” in [22]; 0.02 in data set [23]; 0.31 in data set [25]; 0.55 in [26]. Also, the Activity in [27] is 0.17; in data set [28], 0.04; in the data set with NCI-H526 [32] it was 1319 mm3; in [33], 1.54; in data set [35] it was 0.74. Moreover, the “fold change (FC)” value in [3] turned out to be 1.06; in [4] it was 1.27; in data set [5], 2.85; in data set [14], 1.74; in data set [24], 1.22; in data set [29], 0.71. Further, in [31], the “fold change (FC)” value is given as 0.85. This compound also returned an AUClast/dose in data set [6] of 171 ng·h/mL/mg/kg. Besides, in data set [8], the Ki turned out to be 1700 nM. For the same compound, the result with NCI-H446, in the data set on NCI-H526 [9], in the data set on NCI-H146 [17] and in the data set on NCI-H146 [30] was inactive. Also, in [12], the area under the curve AUC(0-inf) was determined as 2690 ng·h/mL. In [16], the Tmax was 0.25 h. The inhibition result (in [19]; with NCI-H1417) was “Dose-Dependent Effect” throughout. In addition, in data set [20], the peak level (Cmax) was 355 ng/mL. The same compound showed a half-life in data set [34] of 8.4 h.

The values above are taken from ChEMBL document CHEMBL5705903, “A DNA Hypomethylation Signature Predicts Antitumor Activity of LSD1 Inhibitors in SCLC” (Cancer Cell, 2015).
